Measured values reported in patent US7524880B2, “Crystalline form of a substituted pyrrolidine compound” (Theravance, Inc., priority 2004, dated 2009).
Where a name gives a salt, the structure may show the parent alone.

Assays:
[1] = test system: MCh-induced depressor responses; test: Methacholine-induced depressor responses in conscious guinea pigs; format: in vivo; conditions: conscious guinea pig, inhalation
Description: Healthy, adult, male Sprague-Dawley guinea pigs (Harlan, Indianapolis, Ind.), weighing between 200 and 300 g were used in these studies. Under isoflurane anesthesia (to effect), animals were instrumented with common carotid artery and jugular vein catheters (PE-50 tubing). The catheters were exteriorized utilizing a subcutaneous tunnel to the subscapular area. All surgical incisions were sutured with 4-0 Ethicon Silk and the catheters locked with heparin (1000 units/mL). Each animal was administered saline (3 mL, SC) at the end of surgery as well as buprenorphine (0.05 mg/kg, IM). Animals were allowed to recover on a heating pad before being returned to their holding rooms.
Approximately 18 to 20 hours following surgery, the animals were weighed and the carotid artery catheter on each animal was connected to a transducer for recording arterial pressure. Arterial pressure and heart rate was recorded using a Biopac MP-100 Acquisition System. Animals were allowed to acclimate and stabilize for a period of 20 minutes.
Each animal was challenged with methylcholine (MCh) (0.3 mg/kg, iv) administer through the jugular venous line and the cardiovascular response was monitored for 10 minutes. […] At 1.5 and 24 h post-dosing, the animals were re-challenged with MCh (0.3 mg/kg, iv) and the hemodynamic response was determined. […]

[2] = Solution state stability assessment (HPLC); format: physicochemical; conditions: for change in purity (HPLC): 1 mg/mL and 0.1 mg/mL in normal saline, 10 mM citrate pH 5
Experimental: Samples of the crystalline naphthalene-1,5-disulfonic acid salt of 2-[(S)-1-(8-methylaminooctyl)pyrrolidin-3-yl]-2,2-diphenylacetamide of Example 5 were used to prepare an inhalation solution consisting of 1 mg/mL and 0.1 mg/mL salt in normal saline with 10 mM citrate buffer adjusted to pH 5. The resulting solutions were placed in 3 mL borosilicate vials and stoppered with Teflon grey plug stoppers. The solutions were then stored at −20° C., 5° C., 30° C., 60° C. The samples were analyzed according to the HPLC method described in Example 10. After approximately six months for the solutions stored at −20° C., 5° C., and 30° C. there was no detectable change in purity observed (less than 0.5%) for samples stored at 60° C. less than 5% change in purity was observed.

[3] = Thermal analysis (DSC/TGA); format: physicochemical; conditions: heating ramp 5° C./min, ambient to about 300° C.
Experimental: Differential scanning calorimetry (DSC) was performed using a TA Instruments Model Q-10 module with a Thermal Analyst controller. Data were collected and analyzed using TA Instruments Thermal Solutions software. A sample of about 1 mg was accurately weighed into an aluminum pan with lid. The sample was evaluated using a linear heating ramp of 5° C./min from ambient temperature to approximately 300° C. The DSC cell was purged with dry nitrogen during use. A representative DSC trace for a sample of the crystalline naphthalene-1,5-disulfonic acid salt of 2-[(S)-1-(8-methylaminooctyl)pyrrolidin-3-yl]-2,2-diphenylacetamide of Example 5 is shown in FIG. 2.
Thermogravimetric analysis (TGA) was performed using a TA Instruments Model Q-50 module equipped with high resolution capability. Data were collected and analyzed using TA Instruments Thermal Solutions software. A sample weighing about 10 mg was placed onto a platinum pan and scanned with a high resolution-heating rate from ambient temperature to 300° C. The balance and furnace chambers were purged with nitrogen flows during use. A representative TGA trace for a sample of the crystalline naphthalene-1,5-disulfonic acid salt of 2-[(S)-1-(8-methylaminooctyl)pyrrolidin-3-yl]-2,2-diphenylacetamide of Example 5 is shown in FIG. 2.

[4] = Solid state stability assessment (HPLC); format: physicochemical
Experimental: Samples of the crystalline naphthalene-1,5-disulfonic acid salt of 2-[(S)-1-(8-methylaminooctyl)pyrrolidin-3-yl]-2,2-diphenylacetamide of Example 5, about 30 mg each, were stored in multiple 3 mL borosilicate vials at −20° C. (closed container), 40° C./75% RH (open and closed container), and at 80° C. (closed container). At specific intervals, the entire contents of a representative vial was analyzed by the following HPLC method:
Samples were prepared as 1 mg/mL solutions using 50% EtOH and 50% citrate buffer (10 mM pH 5 in normal saline). These solutions were then injected onto the HPLC.
The initial purity of the samples was 99.5% as determined by HPLC area percentage. […] (closed container) and 40° C./75% RH (open and closed container).

[5] = Dynamic moisture sorption assessment; format: physicochemical; conditions: for deliquescence: exposed to atmospheric moisture
Experimental: A dynamic moisture sorption (DMS) assessment (also known as a moisture sorption-desorption profile) was performed for a sample of a crystalline naphthalene-1,5-disulfonic acid salt of 2-[(S)-1-(8-methylaminooctyl)pyrrolidin-3-yl]-2,2-diphenylacetamide (prepared according to the procedure of Example 5) using a VTI atmospheric microbalance, SGA-100 system (VTI Corp., Hialeah, Fla. 33016). A sample size of approximately 10 mg was used and the humidity was set at the ambient value at the start of the analysis. A typical DMS analysis consisted of three scans: ambient to 2% RH, 2% RH to 90% RH, 90% RH to 5% RH at a scan rate of 5% RH/step. The mass was measured every two minutes and the RH was changed to the next value (+/−5% RH) when the mass of the sample was stable to within 0.01% for 5 consecutive points.
The salt has an acceptable 1.9% weight gain when it exposed to a broad humidity range from 2% RH up to 90% RH and it has a less than 1% weight gain in the humidity range of 40% RH to 75% RH.

[6] = Micronization with a jet mill, comparison with unmicronized material; format: physicochemical; conditions: micronized compared to unmicronized material
Description: A sample of a crystalline naphthalene-1,5-disulfonic acid salt of 2-[(S)-1-(8-methylaminooctyl)pyrrolidin-3-yl]-2,2-diphenylacetamide (prepared according to the procedure of Examples 4 and 5) was micronized with a jet mill to give a free-flowing white powder with birefringence observed upon microscopic examination.

[7] = solid, 3 months, all conditions

CNCCCCCCCCN1CC[C@@H](C(C(N)=O)(c2ccccc2)c2ccccc2)C1 [Example 1, 2-[(S)-1-(8-Methylaminooctyl)pyrrolidin-3-yl]-2,2-diphenylacetamide]
apparent lung-selectivity index (ratio of anti-depressor ID50 to bronchoprotective ID50) [1]: greater than 5

CNCCCCCCCCN1CC[C@@H](C(C(N)=O)(c2ccccc2)c2ccccc2)C1 [Example 5, 2-[(S)-1-(8-Methylaminooctyl)pyrrolidin-3-yl]-2,2-diphenylacetamide Naphthalene-1,5-disulfonic Acid Salt]
change in purity (HPLC) ([2]; approximately six months at 60° C.): less than 5%
change in purity (HPLC) ([2]; approximately six months at −20° C., 5° C. and 30° C.): less than 0.5%
change in pH values of solutions ([2]; inhalation solutions in normal saline, 10 mM citrate pH 5, approximately six months): no appreciable change
thermal decomposition (DSC) [3]: no thermal decomposition below 200 °C
chemical degradation by HPLC ([4]; 6 months storage at 40° C. and 75% relative humidity): no detectable chemical degradation
change in the appearance of the material [4, 7]: no observable change
differences by DSC and TGA [4, 7]: no detectable differences
change in chemical purity (HPLC) ([4]; solid, 3 months, all conditions: −20° C. closed, 40° C./75% RH open and closed, 80° C. closed): less than 0.5%
chemical or physical differences ([4]; solid, 6 months at −20° C. (closed) and 40° C./75% RH (open and closed)): no detectable chemical or physical differences
chemical degradation by HPLC ([4]; storage for 28 days at 40° C. and 75% relative humidity): less than 0.5%
weight gain on exposure to humidity ([5]; 2% RH up to 90% RH): 1.9%
weight gain on exposure to humidity ([5]; 2% RH up to 90% RH, listed as crystalline naphthalene-1,5-disulfonic acid salt of the compound of formula I): less than 2%
deliquescence [5]: not deliquescent
deliquescence ([5]; listed as crystalline naphthalene-1,5-disulfonic acid salt): not to be deliquescent
weight gain on exposure to humidity ([5]; humidity range of 40% RH to 75% RH): less than 1%
hygroscopicity (moderate) ([5]; reversible sorption/desorption profile): < 5%

CNCCCCCCCCN1CC[C@@H](C(C(N)=O)(c2ccccc2)c2ccccc2)C1 [Example 14, naphthalene-1,5-disulfonic acid salt of 2-[(S)-1-(8-methylaminooctyl)pyrrolidin-3-yl]-2,2-diphenylacetamide]
change in PXRD pattern, TGA trace, DSC trace, DMS trace, chemical purity, chiral purity and moisture content [6]: No change was observed
